Assay results reported in PMC4470081, “Characterization of glutathione transferases involved in the pathogenicity of Alternaria brassicicola” (BMC Microbiology, 2015).

How the values were obtained:
Assay type in all cases: biochemical, Alternaria brassicicola
AbGTT1.2 [1] = tested on: T1, AbGTT1.2; experiment: peroxidase, glutathione reductase/NADPH coupled, […] nm; conditions: 3 mM GSH (table note; methods say 2 mM), Tris-HCl pH 8.0
T1 construct: E. coli BL21(DE3) pRARE

AbUre2pB1 [2] = tested on: T2, AbUre2pB1; experiment: as above; conditions: 3 mM GSH (table note; methods say 2 mM), Tris-HCl pH 8.0
T2 construct: E. coli BL21(DE3) pRARE

AbGSTFuA1 [3] = tested on: T3, AbGSTFuA1; experiment: GSH transferase, absorbance […] nm; conditions: 3 mM GSH (table note; methods say 5 mM), pH 6.5
T3 construct: E. coli BL21(DE3) pRARE

AbGSTFuA1 [4] = tested on: T3, AbGSTFuA1; experiment: GSH transferase, absorbance […] nm; conditions: 3 mM GSH (table note; methods say 5 mM), phosphate pH 7.5
AbUre2pB1 [5] = tested on: T2, AbUre2pB1; experiment: GSH transferase, absorbance […] nm; conditions: 3 mM GSH (table note; methods say 5 mM), phosphate pH 7.5
AbGTT1.2 [6] = tested on: T1, AbGTT1.2; experiment: GSH transferase, absorbance […] nm; conditions: 3 mM GSH (table note; methods say 5 mM), phosphate pH 7.5

CC(C)(OO)c1ccccc1 [Cu-OOH]
Km (AbGTT1.2 [1]): 120 ± 40 µM | Km (AbUre2pB1 [2]): 770 ± 60 µM

C=CCN=C=S [Al-ITC]
Km (AbGSTFuA1 [3]): 120 ± 20 µM

S=C=NCc1ccccc1 [Bz-ITC]
Km (AbGSTFuA1 [3]): 180 ± 30 µM

S=C=NCCc1ccccc1 [Ph-ITC]
Km (AbGSTFuA1 [3]): 110 ± 20 µM

O=[N+]([O-])c1ccc(Cl)c([N+](=O)[O-])c1 [CDNB, 1-chloro-2,4-dinitrobenzene]
Km (AbGSTFuA1 [4]): 400 ± 20 µM | Km (AbUre2pB1 [5]): 5010 ± 400 µM | Km (AbGTT1.2 [6]): 1820 ± 330 µM
